The values below come from patent US20200376007A1, “THERAPEUTIC COMPOUNDS AND METHODS OF USE THEREOF” (REGENTS OF THE UNIVERSITY OF MINNESOTA, priority 2019, published 2020).

pEC50: −log10 of the molar value.

The assay has as its target T1, human TGR5 receptor (Homo sapiens, UniProt Q8TDU6).
T1 construct: expressed in transfected cells
T1 sequence (Q8TDU6 1-330): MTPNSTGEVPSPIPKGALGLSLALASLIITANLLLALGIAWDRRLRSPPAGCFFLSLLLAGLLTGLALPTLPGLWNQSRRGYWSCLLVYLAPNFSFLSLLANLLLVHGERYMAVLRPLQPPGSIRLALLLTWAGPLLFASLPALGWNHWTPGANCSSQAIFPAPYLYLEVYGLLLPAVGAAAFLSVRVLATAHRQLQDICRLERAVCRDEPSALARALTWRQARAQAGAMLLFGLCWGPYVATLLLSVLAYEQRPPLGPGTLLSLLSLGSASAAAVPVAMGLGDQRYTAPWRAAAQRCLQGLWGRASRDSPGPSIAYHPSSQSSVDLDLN
Kind of assay: TGR5 cAMP assay. The format is cell-based. The following applies: TGR5 agonist activity; cAMP production in a recombinant cell line expressing human TGR5 receptor. The method, then:
TGR5 agonist activity was evaluated by assaying cAMP production in a recombinant cell line expressing human TGR5 receptor.

For the molecule `CO[C@@H]1C[C@@H]2C[C@H](O)CC[C@]2(C)[C@H]2CC[C@]3(C)[C@@H]([C@H](C)CCC(=O)O)CC[C@H]3[C@H]12` [Example 3, (R)-4-((3R,5S,7R,8R,9S,10S,13R,14S,17R)-3-hydroxy-7-methoxy-10,13-dimethylhexadecahydro-1H-cyclopenta[a]phenanthren-17-yl)pentanoic acid], the pEC50 was 7.13.

In the case of `COCCOCCNC(=O)CC[C@@H](C)[C@H]1CC[C@H]2[C@@H]3[C@H](OC)C[C@@H]4C[C@H](O)CC[C@]4(C)[C@H]3CC[C@]12C` [Example 4, (R)-4-((3R,5S,7R,8R,9S,10S,13R,14S,17R)-3-hydroxy-7-methoxy-10,13-dimethylhexadecahydro-1H-cyclopenta[a]phenanthren-17-yl)-N-(2-(2-methoxyethoxy)ethyl)pentanamide], the pEC50 was 7.31.

Turning to `COCc1nnc(CC[C@@H](C)[C@H]2CC[C@H]3[C@@H]4[C@H](OC)C[C@@H]5C[C@H](O)CC[C@]5(C)[C@H]4CC[C@]23C)o1` [Example 5, (3R,5S,7R,8R,9S,10S,13R,14S,17R)-7-methoxy-17-((R)-4-(5-(methoxymethyl)-1,3,4-oxadiazol-2-yl)butan-2-yl)-10,13-dimethylhexadecahydro-1-cyclopenta[a]phenanthren-3-ol], the pEC50 was 7.65.

For the molecule `CO[C@@H]1C[C@@H]2C[C@H](O)CC[C@]2(C)[C@H]2CC[C@]3(C)[C@@H]([C@H](C)CCC(=O)NC[C@H](O)[C@@H](O)[C@H](O)[C@H](O)CO)CC[C@H]3[C@H]12` [Example 6, (R)-4-((3R,5S,7R,8R,9S,10S,13R,14S,17R)-3-hydroxy-7-methoxy-10,13-dimethylhexadecahydro-1H-cyclopenta[a]phenanthren-17-yl)-N-((2S,3R,4R,5R)-2,3,4,5,6-pentahydroxyhexyl)pentanamide], the pEC50 was 7.56.

With `CO[C@@H]1C[C@@H]2C[C@H](O)CC[C@]2(C)[C@H]2CC[C@]3(C)[C@@H]([C@H](C)CCC(=O)N(C)C[C@H](O)[C@@H](O)[C@H](O)[C@H](O)CO)CC[C@H]3[C@H]12` [Example 7, (R)-4-((3R,5S,7R,8R,9S,10S,13R,14S,17R)-3-hydroxy-7-methoxy-10,13-dimethylhexadecahydro-1H-cyclopenta[a]phenanthren-17-yl)-N-methyl-N-((2S,3R,4R,5R)-2,3,4,5,6-pentahydroxyhexyl)pentanamide], the pEC50 is 7.22.
